59 compounds from patent USRE47193E1, “Selectively substituted quinoline compounds” (EISAI R&D MANAGEMENT CO., LTD., priority 2013, dated 2019) can be followed below.

In this assay the test system is Human TLR7/8. The assay can be described thus: Human PBMC cell-based assay, TLR7/8 stimulus (RNA-Ig), cytokine ELISA. Particulars: primary human PBMC assay, TLR7/8 potency; ligand not given; read-out: Human PBMCs IC50. The method, then:
Human PBMC Cell-Based Assay. Human peripheral blood mononuclear cells (PBMC) were isolated from freshly-drawn heparinized (10 USP units/ml, Hospira, Lakeforest, Ill.) healthy donor whole blood by density gradient (Histopaque® 1077, Sigma, Inc., St. Louis, Mo.). Briefly, 25 ml blood was diluted with 15 ml PBS (without Ca^2+, Mg^2+) in a 50 ml conical tube, and 12 ml Histopaque was underlaid using a spinal needle. Tubes were centrifuged for 45 minutes at 1200 rpm (350×g), and PBMC were collected from the buffy coat. Cells were then washed twice in PBS, and red blood cells were lysed by suspension in 5 ml ammonium chloride solution (1× Red Blood Cell Lysis Buffer, eBioscience) for 5 minutes at room temperature. After a final wash in PBS, PBMC were resuspended at a final concentration of 2×10^6/ml in RPMI-1640 media with L-glutamine (Invitrogen) and supplemented with 25 mM HEPES (Mediatech, Inc, Manassas Va.), 10% fetal bovine serum (HyClone, Logan, Utah), and Penicillin-Streptomycin-Glutamine (Mediatech) and plated at 100 ul/well (2×10^5 cells/well) in tissue culture treated 96-well plates (Falcon).
Antagonist compounds solubilized and serial diluted in 100% DMSO were added in triplicate to cells to yield a final concentration of 0.1% DMSO (v/v). Hydroxychloroquine (Acros Organics) solubilized and serial diluted in PBS was added in triplicate to cells. PBMC were incubated with antagonist compounds or HCQ for 30 minutes at 37° C., 5% CO2 before adding various TLR agonist reagents in 100 ul complete media per well as follows (final concentrations indicated): R848 (Resiquimod; GLSynthesis, Worcester, Mass.) at 1 uM for TLR7 and TLR8, LPS (Sigma) at 10 ng/ml for TLR4, and CpG-2216 (InvivoGen) at 5 ug/ml for TLR9. To prepare a TLR7/8 agonist that mimics RNA-containing auto-antibody immune complexes in lupus patients, a 26-mer RNA with a sequence derived from human U1 snRNA stem loop IV [(sequence: […]-[…] (SEQ ID NO: 2) with phosphorothioate backbone] was synthesized (Dharmacon, Inc., Lafayette, Colo.), which has been shown previously to be a potent TLR7 and TLR8 agonist. This RNA molecule was diluted to 2.5 μM in serum-free RPMI, and mouse anti-human single stranded DNA monoclonal antibody (MAB3034, Millipore, Inc., Billerica, Mass.), which also cross-reacts with RNA, was added at a 1:25 dilution or at 1 ug/ml. The resulting “RNA-Ig” stimulus was incubated at room temperature for 15-30 minutes before adding to cells. PBMC were incubated with the various TLR agonists for 20 hours at 37° C., 5% CO2. Cell culture supernatants were collected, and levels of various human cytokines were assessed as indicated by standard ELISA procedure according to the manufacturer's recommended protocol (BD Biosciences, Inc., San Diego, Calif.). In a subsequent assay (Table 6) the ability of ER-899742 to block stimulation of normal PBMC by various TLR7/8 ligands, but not DNA-mediated activation of TLR9, was examined. In this assay cells were plated at 1×10^5 cells/well in 100 ul in 96-well plates.
For orientation: An ELISA detects its analyte on a solid surface through an enzyme-linked reagent.

By IC50 is commonly meant the midpoint of a concentration-inhibition curve. In the case of `COc1ccc(NC[C@H]2CN(c3ccc(C#N)c4ncccc34)C[C@@H](C)O2)nc1` [ER-886855], the IC50 was 34 nM.
Regarding `CC1CN(c2ccc(C#N)c3ncccc23)CC(CN2CCCC2C)O1` (centres unmarked) [ER-886856], the IC50 turned out to be 111 nM.
For `COc1cccc(NC[C@H]2CN(c3ccc(C#N)c4ncccc34)C[C@@H](C)O2)n1` [ER-886859], the IC50 was determined as 107 nM.
For the compound `C[C@@H]1CN(c2ccc(C#N)c3ncccc23)C[C@H](CNc2ccnn2-c2ccccc2)O1` [ER-886860], the IC50 is 240 nM.
Regarding `CC1CN(c2ccc(C#N)c3ncccc23)CC(CN2CCCC2CO)O1` (centres unmarked) [ER-886866], the IC50 was 50 nM.
With `C[C@@H]1CN(c2ccc(C#N)c3ncccc23)C[C@H](CN2CC[C@@H](O)C2)O1` [ER-886867], the IC50 is 34 nM.
Next, `CC1CCN(CC2CN(c3ccc(C#N)c4ncccc34)CC(C)O2)C1` (centres unmarked) [ER-886868]: 50 nM; `CC1CN(c2ccc(C#N)c3ncccc23)CC(CN2C(C)CCCC2C)O1` (centres unmarked) [ER-886950]: 114 nM.
In the case of `CC1CN(c2ccc(C#N)c3ncccc23)CC(CN2CCCC(O)C2)O1` (centres unmarked) [ER-886951], the IC50 is 79 nM.
As to `CC1CN(c2ccc(C#N)c3ncccc23)CC(CN2CCCCC2C)O1` (centres unmarked) [ER-886957], the IC50 is 17 nM.
In the case of `CCC1CCCCN1CC1CN(c2ccc(C#N)c3ncccc23)CC(C)O1` (centres unmarked) [ER-886958], the IC50 came out at 34 nM.
On to `CC1CCN(C[C@H]2CN(c3ccc(C#N)c4ncccc34)C[C@@H](C)O2)CC1` [ER-887141], for which the half-inhibitory concentration (IC50) is 49 nM.
With `CC1CCCC(NCC2CN(c3ccc(C#N)c4ncccc34)CC(C)O2)C1` (centres unmarked) [ER-887146], the IC50 is 38 nM.
The figure for `C[C@@H]1CN(c2ccc(C#N)c3ncccc23)C[C@H](CNc2cc(-c3ccccc3)ccn2)O1` [ER-887252] is 2 nM.
Consider `CC1CN(CC2CN(c3ccc(C#N)c4ncccc34)CC(C)O2)C(C)CN1` (centres unmarked) [ER-887260], for which the IC50 was determined as 4 nM.
Consider `CC1CN(c2ccc(C#N)c3ncccc23)CC(CN2CC(O)CC2CO)O1` (centres unmarked) [ER-887262], for which the IC50 was determined as 103 nM.
`C[C@@H]1CN(c2ccc(C#N)c3ncccc23)C[C@H](CNc2cccc(-c3ccccc3)n2)O1` [ER-887589]: the IC50 was found to be 36 nM.
Turning to `N#Cc1ccc(N2CCOC(CNc3ccccn3)C2)c2cccnc12` (centres unmarked) [ER-887612], the IC50 is 53 nM.
Consider `Cc1cc(C=O)cc(-c2ccc(C#N)c3ncccc23)c1` [ER-888200], for which the IC50 worked out at 16 nM.
Next, `C[C@@H]1CN(c2ccc(C#N)c3ncccc23)C[C@H](CN2CCCCC2)O1` [ER-888202]: 8 nM; `C[C@@H]1CN(c2ccc(C#N)c3ncccc23)C[C@H](CN2CCOCC2)O1` [ER-888203]: 105 nM.
As for `C[C@@H]1CN(c2ccc(C#N)c3ncccc23)C[C@H](CN2C[C@@H](C)O[C@@H](C)C2)O1` [ER-888204], the IC50 came out at 22 nM.
Regarding `CC1CN(CC2CN(c3ccc(C#N)c4ncccc34)CC(C)O2)CC(CO)O1` (centres unmarked) [ER-888205], the IC50 came out at 40 nM.
Regarding `CC1CN(c2ccc(C#N)c3ncccc23)CC(CN2CCN(c3ccccn3)CC2)O1` (centres unmarked) [ER-888285], the IC50 came out at 14 nM.
`CC1CN(c2ccc(C#N)c3ncccc23)CC(CN2CCN(c3ccncc3)CC2)O1` (centres unmarked) [ER-888286]: the IC50 amounted to 223 nM.
`C[C@@H]1CN(c2ccc(C#N)c3ncccc23)C[C@H](CNc2ccc3cccnc3n2)O1` [ER-888289]: the IC50 is 11 nM.
For `C[C@@H]1CN(c2ccc(C#N)c3ncccc23)C[C@H](CN2CCN(C(N)=O)CC2)O1` [ER-888330], the IC50 came out at 154 nM.
Turning to `CC1CN(c2ccc(C#N)c3ncccc23)CC(CN2CCC(C3CCCCC3)CC2)O1` (centres unmarked) [ER-888479], the half-inhibitory concentration (IC50) came out at 91 nM.
As for `C[C@@H]1CN(c2ccc(C#N)c3ncccc23)C[C@H](Cn2cc(C3CCCCC3)nn2)O1` [ER-888603], the IC50 amounted to 7 nM.
As for `C[C@@H]1CN(c2ccc(C#N)c3ncccc23)C[C@H](Cn2cc(-c3ccccc3)nn2)O1` [ER-888604], the IC50 was 6 nM.
With `Cc1cc(CN2CCC(O)CC2)cc(-c2ccc(C#N)c3ncccc23)c1` [ER-888645], the IC50 worked out at 47 nM.
Consider `Cc1cc(CN2CCC(N(C)C)CC2)cc(-c2ccc(C#N)c3ncccc23)c1` [ER-888646], for which the IC50 is 3 nM.
Turning to `Cc1cc(CN2CCN(C)CC2)cc(-c2ccc(C#N)c3ncccc23)c1` [ER-888647], the IC50 came to 12 nM.
On to `CCc1cnc(NC[C@H]2CN(c3ccc(C#N)c4ncccc34)C[C@@H](C)O2)nc1` [ER-888701], for which the IC50 was determined as 18 nM.
Next, `C[C@@H]1CN(c2ccc(C#N)c3ncccc23)C[C@H](CNc2cnccn2)O1` [ER-888896]: 50 nM; `Cc1cc(NC[C@H]2CN(c3ccc(C#N)c4ncccc34)C[C@@H](C)O2)n(C)n1` [ER-888977]: 217 nM; `Cc1cc(CN2CCC(N3CCCCC3)CC2)cc(-c2ccc(C#N)c3ncccc23)c1` [ER-889504]: 2 nM.
Next, `CC1CN(c2ccc(C#N)c3ncccc23)CC(CN2CCC(CO)CC2)O1` (centres unmarked) [ER-889557]: 85 nM; `CC1CN(c2ccc(C#N)c3ncccc23)CC(CN2CCC(N3CCCC3)C2)O1` (centres unmarked) [ER-889571]: 1000 nM; `CC1CN(c2ccc(C#N)c3ncccc23)CC(CN2CCC(NC(=O)c3cccnc3)CC2)O1` (centres unmarked) [ER-889728]: 21 nM.
Turning to `CCCCCC(=O)NC1CCN(CC2CN(c3ccc(C#N)c4ncccc34)CC(C)O2)CC1` (centres unmarked) [ER-889744], the IC50 came out at 8 nM.
For the compound `CC1CN(c2ccc(C#N)c3ncccc23)CC(CN2CCC(NC(=O)C(C)(C)C)CC2)O1` (centres unmarked) [ER-889746], the IC50 amounted to 73 nM.
The figure for `C[C@@H]1CCN(c2ccc(C#N)c3ncccc23)C[C@H](CN2CCC(N3CCCCC3)CC2)O1` [ER-889822] is 25 nM; for `CC1CN(c2ccc(C#N)c3ncccc23)CC(CN2CC(N3CCN(C)CC3)C2)O1` (centres unmarked) [ER-890108] it is 9 nM.
Consider `CC(=O)N1CCC(C2CCN(CC3CN(c4ccc(C#N)c5ncccc45)CC(C)O3)CC2)CC1` (centres unmarked) [ER-890113], for which the IC50 was found to be 22 nM.
Turning to `CC1CN(c2ccc(C#N)c3ncccc23)CC(CN2CC(N3CCNCC3)C2)O1` (centres unmarked) [ER-890119], the IC50 is 8 nM.
The figure for `CC(=O)N1CCN(C2CN(CC3CN(c4ccc(C#N)c5ncccc45)CC(C)O3)C2)CC1` (centres unmarked) [ER-890120] is 5 nM; for `CC(=O)N[C@@H]1CCN(C[C@H]2CN(c3ccc(C#N)c4ncccc34)C[C@@H](C)O2)C1` [ER-890252] it is 42 nM.
Regarding `CC(C)C(=O)N[C@@H]1CCN(C[C@H]2CN(c3ccc(C#N)c4ncccc34)C[C@@H](C)O2)C1` [ER-890253], the half-inhibitory concentration (IC50) came to 64 nM.
The figure for `CC1CN(c2ccc(C#N)c3ncccc23)CC(CN2CC(N3CCOCC3)C2)O1` (centres unmarked) [ER-890342] is 121 nM.
On to `CC1CN(c2ccc(C#N)c3ncccc23)CC(CN2CCNCC2C)O1` (centres unmarked) [ER-890344], for which the IC50 stood at 2 nM.
On to `CC1CN(c2ccc(C#N)c3ncccc23)CC(CN2CC(N3CCC(N)CC3)C2)O1` (centres unmarked) [ER-892253], for which the IC50 came to 66 nM.
As to `Cc1nn(C)cc1C(=O)NC1CCN(CC2CN(c3ccc(C#N)c4ncccc34)CC(C)O2)CC1` (centres unmarked) [ER-893926], the IC50 was determined as 8 nM.
As to `C[C@@H]1CN(c2ccc(C#N)c3ncccc23)C[C@H](CN2CCC(NS(=O)(=O)c3ccccc3)CC2)O1` [ER-894149], the IC50 is 31 nM.
As for `CC1CN(c2ccc(C#N)c3ncccc23)CC(CN2CCC(NS(=O)(=O)c3ccc(F)cc3)CC2)O1` (centres unmarked) [ER-894150], the IC50 was determined as 4 nM.
`C[C@@H]1CN(c2ccc(C#N)c3ncccc23)C[C@H](CN2CC(NS(C)(=O)=O)C2)O1` [ER-894154]: the IC50 turned out to be 143 nM.
The figure for `C[C@@H]1CN(c2ccc(C#N)c3ncccc23)C[C@H](CN2CC(NS(=O)(=O)c3ccc(F)cc3)C2)O1` [ER-894155] is 42 nM.
Regarding `Cc1nn(C)cc1S(=O)(=O)NC1CN(C[C@H]2CN(c3ccc(C#N)c4ncccc34)C[C@@H](C)O2)C1` [ER-894159], the IC50 is 42 nM.
As for `Cc1nn(C)cc1S(=O)(=O)NC1CCN(C[C@H]2CN(c3ccc(C#N)c4ncccc34)C[C@@H](C)O2)CC1` [ER-894160], the IC50 is 11 nM.
